The record followed here is US20260317320A1, “C5AR1 ANTAGONISTS AND USES THEREOF” (Vanqua Bio, Inc., priority 2022, published 2026).

Molecules are shown by their SMILES. Like-named read-outs stand apart in the source and are kept apart here.

What is called IC50 is the concentration at which inhibition is half-maximal.

The target of experiment [1] is T1, complement C5a receptor 1 (C5aR1) (Homo sapiens, UniProt P21730).
T1 construct: β-galactosidase fragment (PathHunter enzyme complementation); host or cells: CHO-K1 (PathHunter CHO-K1 C5aR1 β-arrestin cell line)
T1 sequence (P21730 1-350): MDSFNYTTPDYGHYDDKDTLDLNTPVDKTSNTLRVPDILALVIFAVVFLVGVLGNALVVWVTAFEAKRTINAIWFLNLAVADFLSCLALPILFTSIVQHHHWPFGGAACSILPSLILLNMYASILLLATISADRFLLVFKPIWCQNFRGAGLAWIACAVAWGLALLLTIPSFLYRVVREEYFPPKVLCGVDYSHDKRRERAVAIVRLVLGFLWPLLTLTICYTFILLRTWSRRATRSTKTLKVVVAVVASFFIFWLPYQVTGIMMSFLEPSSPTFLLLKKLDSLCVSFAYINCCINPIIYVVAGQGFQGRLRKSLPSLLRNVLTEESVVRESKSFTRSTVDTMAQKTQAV
As to the kind of experiment: β-arrestin recruitment via C5aR1 activation in live CHO-K1 cells (PathHunter), antagonist mode. The format is cell-based. Particulars: antagonist mode; recombinant hC5a (EC90) as competing natural agonist; live CHO-K1 cells; read-out: [Antagonist] B-arrestin2 recruitment: Average IC50; call rule not given here. In a few lines: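 Live CHO-K1 cells carry two galactosidase enzyme fragments, one fused to β-arrestin and one to C5aR1, so that β-arrestin recruitment restores enzyme activity. Agonist mode tests compounds alone. Antagonist mode tests them against recombinant hC5a at EC90, and IC50 values are reported in binned ranges.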

The target of experiment [2] is T1, complement C5a receptor 1 (C5aR1). As to the kind of experiment: β-arrestin recruitment via C5aR1 activation in live CHO-K1 cells (PathHunter), agonist mode. The format is cell-based. As for the experimental part:
Exemplary compounds were evaluated for classical GPCR β-arrestin recruitment via complement C5a receptor 1 (C5aR1) activation in live CHO-K1 cells. This cell line expresses two fragments of the […] protein coupled to β-arrestin and C5aR1. Complementation of the two fragments allows for the assessment of both C5aR1 agonism and antagonism. Recombinant hC5a (EC90) was used as the competing natural agonist against disclosed compounds (more information on the expanded protocol and cell line can be found on the manufacturer's website: PathHunter® CHO-K1 C5aR1 β-arrestin cell line, DiscoverX, Catalog No. 93-0557C2). […] IC50 ranges: A: IC50≤500 nM; B: 500 nM<IC50≤5 uM; C: 5 uM<IC50≤100 uM; D: IC50>100 uM.

Consider `Cc1cnc2cc([C@H]3CC[C@H](c4c(C)ccnc4F)CC3)c(=O)n(Cc3nccnc3C(F)(F)F)c2n1` [143A, 7-((1r,4r)-4-(2-Fluoro-4-methylpyridin-3-yl)cyclohexyl)-3-methyl-5-((3-(trifluoromethyl)pyrazin-2-yl)methyl)pyrido[2,3-b]pyrazin-6(5H)-one], for which the IC50 in experiment [1] is less than 500 nM. Also, the “[Agonist] B-arrestin2 recruitment: Average EC50 (nM)” value (“[Agonist] B-arrestin2 recruitment” for short) in experiment [2] was “Non-Active”.

As for `Cc1ccc2cc([C@H]3CC[C@H](c4c(F)cccc4F)CC3)c(=O)n(Cc3ncccc3OC(F)(F)F)c2n1` [compound 246, 3-((1r,4r)-4-(2,6-Difluorophenyl)cyclohexyl)-7-methyl-1-((3-(trifluoromethoxy)pyridin-2-yl)methyl)-1,8-naphthyridin-2(1H)-one], in experiment [1], the IC50 is less than 500 nM. In experiment [2] (at 10 μM), the “[Agonist] B-arrestin2 recruitment” value is on record as “Non-Active at 10 μM”.

Consider `Cc1ccc2cc([C@H]3CC[C@H](c4c(C)cccc4F)CC3)c(=O)n(Cc3nccnc3OCC(F)F)c2n1` [compound 263, 1-{[3-(2,2-Difluoroethoxy)-2-pyrazinyl]methyl}-7-methyl-3-[(1r,4r)-4-(2-fluoro-6-tolyl)cyclohexyl]-1,8-diaza-2(1H)-naphthalenone], for which, in experiment [1], the IC50 was less than 500 nM. For the same molecule, in experiment [2], the “[Agonist] B-arrestin2 recruitment” value is given as “Non-Active”.

For `Cc1cnc2cc([C@H]3CC[C@@H](c4c(C)ccnc4F)CC3)c(=O)n(Cc3nccnc3C(F)F)c2n1` [146A, 5-((3-(Difluoromethyl)pyrazin-2-yl)methyl)-7-((1s,4s)-4-(2-fluoro-4-methylpyridin-3-yl)cyclohexyl)-3-methylpyrido[2,3-b]pyrazin-6(5H)-one], the IC50 in experiment [1] lay within 5000 to 100000 nM. For the same molecule, the “[Agonist] B-arrestin2 recruitment” value in experiment [2] (at 10 μM) is “Non-Active at 10 μM”.

`FC(F)(F)c1cccnc1CN1CC(C2CCN(c3ncccc3Cl)CC2)=Cc2nccnc21` [compound 170, 7-(1-(3-Chloropyridin-2-yl)piperidin-4-yl)-5-((3-(trifluoromethyl)pyridin-2-yl)methyl)-5,6-dihydropyrido[2,3-b]pyrazine]: the IC50 in experiment [1] was less than 500 nM. Moreover, the “[Agonist] B-arrestin2 recruitment” value in experiment [2] (at 10 μM) is on record as “Non-Active at 10 μM”.

As to `Cc1cnc2cc(C3CCN(c4cc(F)cnc4C)CC3)c(=O)n(Cc3nccnc3C(F)(F)F)c2n1` [compound 52, 7-(1-(5-Fluoro-2-methylpyridin-3-yl)piperidin-4-yl)-3-methyl-5-((3-(trifluoromethyl)pyrazin-2-yl)methyl)pyrido[2,3-b]pyrazin-6(5H)-one], the IC50 in experiment [1] is more than 100000 nM. In experiment [2], the “[Agonist] B-arrestin2 recruitment” value is recorded as “Non-Active”.

Consider `Cc1cnc2c(C)c(N3CCN(c4c(C)cccc4F)CC3)c(=O)n(Cc3ncccc3C(F)(F)F)c2n1` [compound 118, 7-(4-(2-fluoro-6-methylphenyl)piperazin-1-yl)-3,8-dimethyl-5-((3-(trifluoromethyl)pyridin-2-yl)methyl)pyrido[2,3-b]pyrazin-6(5H)-one], for which the IC50 in experiment [1] was in the range of 500 to 5000 nM. Also, the “[Agonist] B-arrestin2 recruitment” value in experiment [2] is listed as “Non-Active”.

For the molecule `Cc1nccnc1N1CCC(c2cc3nccnc3n(Cc3ccccc3C(F)(F)F)c2=O)CC1` [compound 8, 7-(1-(3-Methylpyrazin-2-yl)piperidin-4-yl)-5-(2-(trifluoromethyl)benzyl)pyrido[2,3-b]pyrazin-6(5H)-one], in experiment [1], the IC50 was 5000 to 100000 nM. Further, the “[Agonist] B-arrestin2 recruitment” value in experiment [2] is listed as “Non-Active”.

With `Cc1cccc(F)c1N1CCC(c2cc3cncnc3n(Cc3nccnc3C(F)(F)F)c2=O)CC1` [compound 28, 6-(1-(2-fluoro-6-methylphenyl)piperidin-4-yl)-8-((3-(trifluoromethyl)pyrazin-2-yl)methyl)pyrido[2,3-d]pyrimidin-7(8H)-one], the IC50 in experiment [1] lay within 5000 to 100000 nM. Further, in experiment [2], the “[Agonist] B-arrestin2 recruitment” value is on record as “Non-Active”.

For the molecule `Cc1cnc2cc([C@H]3CC[C@H](c4ccccc4C(F)(F)F)CC3)c(=O)n(Cc3ncccc3C(F)(F)F)c2n1` [compound 202, 3-Methyl-7-((1r,4r)-4-(2-(trifluoromethyl)phenyl)cyclohexyl)-5-((3-(trifluoromethyl)pyridin-2-yl)methyl)pyrido[2,3-b]pyrazin-6(5H)-one], the IC50 in experiment [1] was less than 500 nM. The “[Agonist] B-arrestin2 recruitment” value in experiment [2] (at 10 μM) is on record as “Non-Active at 10 μM”.

Take `CCc1cnc2c(cc([C@H]3CC[C@H](c4c(C)cccc4F)CC3)c(=O)n2Cc2ncccc2C(F)(F)F)n1` [compound 211, 2-Ethyl-7-((1r,4r)-4-(2-fluoro-6-methylphenyl)cyclohexyl)-5-((3-(trifluoromethyl)pyridin-2-yl)methyl)pyrido[2,3-b]pyrazin-6(5H)-one]: in experiment [1], the IC50 is less than 500 nM. In addition, the “[Agonist] B-arrestin2 recruitment” value in experiment [2] (at 10 μM) is listed as “Non-Active at 10 μM”.

For the molecule `Cc1cccc(F)c1N1CCC(c2cc3nccnc3n([C@H]3CCCc4ncccc43)c2=O)CC1` [49b, (S)-7-(1-(2-Fluoro-6-methylphenyl)piperidin-4-yl)-5-(5,6,7,8-tetrahydroquinolin-5-yl)pyrido[2,3-b]pyrazin-6(5H)-one], the IC50 in experiment [1] was 500 to 5000 nM. Further, in experiment [2], the “[Agonist] B-arrestin2 recruitment” value was “Non-Active”.

With `Cc1ccc2cc([C@H]3CC[C@H](c4c(C)cccc4F)CC3)c(=O)n(Cc3ncccc3C3CC3)c2n1` [compound 241, 1-((3-Cyclopropylpyridin-2-yl)methyl)-3-((1r,4r)-4-(2-fluoro-6-methylphenyl)cyclohexyl)-7-methyl-1,8-naphthyridin-2(1H)-one], in experiment [1], the IC50 is less than 500 nM. For the same molecule, the “[Agonist] B-arrestin2 recruitment” value in experiment [2] is recorded as “Non-Active”.

Turning to `Cc1cccc(F)c1[C@H]1CC[C@H](c2cc3ncc(C(C)(F)F)nc3n(Cc3ncccc3C(F)(F)F)c2=O)CC1` [compound 267, 3-(1,1-Difluoroethyl)-7-[(1r,4r)-4-(2-fluoro-6-tolyl)cyclohexyl]-5-{[3-(trifluoromethyl)-2-pyridyl]methyl}-1,4,5-triaza-6(5H)-naphthalenone], the IC50 in experiment [1] is less than 500 nM. Moreover, in experiment [2], the “[Agonist] B-arrestin2 recruitment” value is given as “Non-Active”.

Regarding `Cc1cnc2cc([C@H]3CC[C@H](c4c(C)cccc4F)CC3)c(=O)n(Cc3ncccc3OCC(F)(F)F)c2n1` [compound 213, 7-((1r,4r)-4-(2-Fluoro-6-methylphenyl)cyclohexyl)-3-methyl-5-((3-(2,2,2-trifluoroethoxy)pyridin-2-yl)methyl)pyrido[2,3-b]pyrazin-6(5H)-one], the IC50 in experiment [1] was less than 500 nM. The “[Agonist] B-arrestin2 recruitment” value in experiment [2] (at 10 μM) was “Non-Active at 10 μM”.

With `Cc1cnc2cc([C@@H]3CC[C@@H](c4c(C)cccc4F)C3)c(=O)n(Cc3ncccc3C(F)(F)F)c2n1` [171D, 7-((1R,3R)-3-(2-Fluoro-6-methylphenyl)cyclopentyl)-3-methyl-5-((3-(trifluoromethyl)pyridin-2-yl)methyl)pyrido[2,3-b]pyrazin-6(5H)-one], the IC50 in experiment [1] is 500 to 5000 nM. The “[Agonist] B-arrestin2 recruitment” value in experiment [2] (at 10 μM) was “Non-Active at 10 μM”.

With `Cc1cnc2cc(C3CCN(c4c(F)ccc5c4cnn5C)CC3)c(=O)n(Cc3ncccc3C(F)(F)F)c2n1` [compound 184, 7-(1-(5-Fluoro-1-methyl-1H-indazol-4-yl)piperidin-4-yl)-3-methyl-5-((3-(trifluoromethyl)pyridin-2-yl)methyl)pyrido[2,3-b]pyrazin-6(5H)-one], in experiment [1], the IC50 lay within 500 to 5000 nM. Besides, in experiment [2] (at 10 μM), the “[Agonist] B-arrestin2 recruitment” value was “Non-Active at 10 μM”.
